Reference: ChEMBL document CHEMBL1201862, “PubChem BioAssay data set” (2004)
Activity calls are given as the source filed them.

Assays:
Leucine aminopeptidase = target: T1, Leucine aminopeptidase (Plasmodium falciparum 3D7, UniProt Q8IL11); assay: P. falciparum M17LAP inhibitors, primary screen, biochemical, fluorogenic H-Leu-NHMec substrate, 1536-well (AID 1619); assay type: functional
T1 sequence (Q8IL11 whole entry): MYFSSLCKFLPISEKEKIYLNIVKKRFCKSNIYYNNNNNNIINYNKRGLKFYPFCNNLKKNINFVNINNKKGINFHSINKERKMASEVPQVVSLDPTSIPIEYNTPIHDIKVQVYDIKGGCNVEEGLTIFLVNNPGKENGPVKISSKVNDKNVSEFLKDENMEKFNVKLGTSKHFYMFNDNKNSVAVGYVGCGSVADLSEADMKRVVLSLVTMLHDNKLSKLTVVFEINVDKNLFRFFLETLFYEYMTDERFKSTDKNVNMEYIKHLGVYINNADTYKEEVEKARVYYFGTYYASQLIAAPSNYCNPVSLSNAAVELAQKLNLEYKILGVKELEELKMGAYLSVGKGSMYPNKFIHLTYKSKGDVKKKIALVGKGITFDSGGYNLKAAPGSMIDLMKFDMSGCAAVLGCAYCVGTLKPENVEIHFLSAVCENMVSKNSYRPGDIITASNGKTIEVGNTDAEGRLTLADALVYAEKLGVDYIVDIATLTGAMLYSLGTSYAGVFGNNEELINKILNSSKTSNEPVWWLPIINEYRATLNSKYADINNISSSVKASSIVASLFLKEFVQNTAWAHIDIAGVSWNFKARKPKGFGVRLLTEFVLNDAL

[1] = target: T2, High affinity choline transporter 1 (Homo sapiens, UniProt Q9GZV3); assay: human choline transporter blockers, potency – cell-based, 5-point CRC, membrane potential dye, dose response (AID 504840); assay type: functional
T2 sequence (Q9GZV3 whole entry): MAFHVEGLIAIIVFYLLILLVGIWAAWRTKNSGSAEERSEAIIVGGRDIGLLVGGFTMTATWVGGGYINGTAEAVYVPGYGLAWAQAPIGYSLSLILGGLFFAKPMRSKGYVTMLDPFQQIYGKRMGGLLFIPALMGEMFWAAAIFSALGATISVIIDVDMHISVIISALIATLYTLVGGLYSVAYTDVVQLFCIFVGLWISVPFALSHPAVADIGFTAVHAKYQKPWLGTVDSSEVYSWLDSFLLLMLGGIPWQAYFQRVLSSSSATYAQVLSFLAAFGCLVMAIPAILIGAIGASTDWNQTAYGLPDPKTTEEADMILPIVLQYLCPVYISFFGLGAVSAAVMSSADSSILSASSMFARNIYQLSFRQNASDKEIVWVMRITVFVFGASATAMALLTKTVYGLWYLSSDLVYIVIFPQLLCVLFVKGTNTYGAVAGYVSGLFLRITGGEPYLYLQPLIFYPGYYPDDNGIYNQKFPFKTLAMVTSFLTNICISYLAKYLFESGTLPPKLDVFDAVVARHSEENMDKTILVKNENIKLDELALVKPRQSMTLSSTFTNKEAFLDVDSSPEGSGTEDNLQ

[2] = target: T3, Short transient receptor potential channel 4 (Mus musculus, UniProt Q9QUQ5); assay: calcium entry via TRPC4 opening agents – cell-based, HEK293 TRPC4/mu-opioid, Fluo-4 calcium, dose response (AID 434937); assay type: functional
T3 sequence (Q9QUQ5 whole entry): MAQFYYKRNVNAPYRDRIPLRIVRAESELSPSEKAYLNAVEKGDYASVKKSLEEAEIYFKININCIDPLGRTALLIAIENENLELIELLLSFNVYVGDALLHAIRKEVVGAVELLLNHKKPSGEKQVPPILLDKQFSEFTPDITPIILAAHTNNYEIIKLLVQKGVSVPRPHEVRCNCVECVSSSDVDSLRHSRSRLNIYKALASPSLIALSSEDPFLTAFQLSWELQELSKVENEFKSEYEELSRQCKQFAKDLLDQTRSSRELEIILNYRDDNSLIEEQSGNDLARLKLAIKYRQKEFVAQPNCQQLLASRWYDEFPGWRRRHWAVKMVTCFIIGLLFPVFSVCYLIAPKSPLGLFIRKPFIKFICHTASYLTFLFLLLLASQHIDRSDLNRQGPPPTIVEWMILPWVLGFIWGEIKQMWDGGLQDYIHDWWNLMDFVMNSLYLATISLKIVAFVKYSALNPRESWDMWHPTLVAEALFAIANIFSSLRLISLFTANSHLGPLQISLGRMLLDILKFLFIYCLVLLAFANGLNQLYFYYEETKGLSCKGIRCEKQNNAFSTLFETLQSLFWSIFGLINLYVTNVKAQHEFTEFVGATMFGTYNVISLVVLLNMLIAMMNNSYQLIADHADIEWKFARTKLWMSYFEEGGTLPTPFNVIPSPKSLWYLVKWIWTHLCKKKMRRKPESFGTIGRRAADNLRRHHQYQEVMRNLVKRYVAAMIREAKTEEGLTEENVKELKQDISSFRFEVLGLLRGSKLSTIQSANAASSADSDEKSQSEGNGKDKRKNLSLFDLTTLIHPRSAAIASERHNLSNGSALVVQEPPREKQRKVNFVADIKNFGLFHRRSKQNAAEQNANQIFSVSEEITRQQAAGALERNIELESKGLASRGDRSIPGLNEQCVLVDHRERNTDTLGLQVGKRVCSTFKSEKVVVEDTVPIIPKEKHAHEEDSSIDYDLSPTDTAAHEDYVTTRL

[3] = decrease of insulin promoter-GFP reporter – imaging, high-content screening, mouse beta cells (AID 1628); assay type: functional; details: MIN6
[4] = MIN6 cell viability loss – mouse insulinoma, cytotoxicity control, dose response (AID 2122); assay type: functional;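 also: confirmatory high-throughput counterscreen run to flag cytotoxic compounds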
[5] = microbe, parasite or virus in culture; assay type: functional; details: Mycobacterium tuberculosis
[6] = target: Luciferin 4-monooxygenase (Photinus pyralis, UniProt P08659); assay: inhibition of purified Photinus pyralis luciferase – biochemical, luminescence, dose response (AID 1891)
Chain of Luciferin 4-monooxygenase (P08659 whole entry): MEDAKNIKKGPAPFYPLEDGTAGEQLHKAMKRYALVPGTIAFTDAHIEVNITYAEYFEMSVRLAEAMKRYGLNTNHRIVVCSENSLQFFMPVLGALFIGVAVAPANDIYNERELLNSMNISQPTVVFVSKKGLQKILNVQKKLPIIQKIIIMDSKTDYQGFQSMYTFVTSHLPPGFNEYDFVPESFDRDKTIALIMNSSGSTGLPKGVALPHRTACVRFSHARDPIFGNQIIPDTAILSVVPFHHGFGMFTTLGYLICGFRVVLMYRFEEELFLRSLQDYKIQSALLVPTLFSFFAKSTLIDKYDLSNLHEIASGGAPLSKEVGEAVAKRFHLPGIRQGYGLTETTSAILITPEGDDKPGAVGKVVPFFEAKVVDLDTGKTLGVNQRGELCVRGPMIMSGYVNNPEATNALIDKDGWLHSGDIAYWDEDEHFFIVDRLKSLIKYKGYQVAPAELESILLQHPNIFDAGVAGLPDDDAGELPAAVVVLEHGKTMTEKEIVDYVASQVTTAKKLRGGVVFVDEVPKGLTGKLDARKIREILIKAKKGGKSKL

HEK293 = assay: EBV LMP1 TES2 canonical NF-kB signalling blockers – cell-based, HEK293, luciferase, cherry-pick, dose response (AID 588343); assay type: functional; details: Homo sapiens
[7] = non-specific 3'UTR reporter inhibition in Clone20-Shn3RL – cell-based, Renilla luciferase, cherry-picked, counter-screen for Shn3 inhibitor project, dose response (AID 624133); assay type: functional
[8] = loss of viability in HepG2 cells – cell-based, CellTiter-Glo, cherry-picked, cytotoxicity control for Shn3 inhibitor project, dose response (AID 624134); assay type: functional
[9] = reduction of Shn3 3'UTR-driven luciferase in osteoblasts – cell-based, Clone20 osteoblasts, firefly luciferase, cherry-picked, dose response (AID 624132); assay type: functional;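 also: firefly luciferase luminescence from reporter carrying the Shn3 3'UTR in osteoblasts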
[10] = Luminescence Cell-Based Dose Confirmation HTS to Identify Inhibitors of Platelet Dense Granule Release. [Related pubchem assays: 1663 (Primary HTS), 1678 (Summary of Project)]; assay type: functional
Caspase-3 = target: T4, Caspase-3 (Homo sapiens, UniProt P42574); assay type: functional;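 also: Dose-response selectivity test against caspase-3 for candidate inhibitors of sentrin-specific proteases (SENPs)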
T4 sequence (P42574 whole entry): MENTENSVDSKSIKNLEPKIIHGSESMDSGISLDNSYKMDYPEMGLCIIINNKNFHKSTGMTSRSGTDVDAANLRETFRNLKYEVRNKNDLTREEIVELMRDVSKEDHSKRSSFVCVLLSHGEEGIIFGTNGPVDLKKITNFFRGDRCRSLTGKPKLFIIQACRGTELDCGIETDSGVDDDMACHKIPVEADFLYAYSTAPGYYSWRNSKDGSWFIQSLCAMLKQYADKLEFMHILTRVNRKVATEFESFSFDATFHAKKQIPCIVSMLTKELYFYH

[11] = target: T5, Sentrin-specific protease 8 (Homo sapiens, UniProt Q96LD8); assay type: functional;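 also: luminescence read-out of SENP8 inhibition, dose-response confirmation following an ultra-high-throughput screen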
T5 sequence (Q96LD8 whole entry): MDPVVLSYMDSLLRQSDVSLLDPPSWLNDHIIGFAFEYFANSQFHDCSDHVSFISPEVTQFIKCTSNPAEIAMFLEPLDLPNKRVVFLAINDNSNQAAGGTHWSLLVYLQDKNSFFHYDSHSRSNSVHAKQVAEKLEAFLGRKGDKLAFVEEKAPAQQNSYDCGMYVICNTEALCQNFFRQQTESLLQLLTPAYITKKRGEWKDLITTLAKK

[12] = target: T6, Sentrin-specific protease 7 (Homo sapiens, UniProt Q9BQF6); assay type: functional;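 also: Luminescence-based dose-response confirmation of ultra-high-throughput screening hits, measuring inhibition of SENP7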
T6 sequence (Q9BQF6 whole entry): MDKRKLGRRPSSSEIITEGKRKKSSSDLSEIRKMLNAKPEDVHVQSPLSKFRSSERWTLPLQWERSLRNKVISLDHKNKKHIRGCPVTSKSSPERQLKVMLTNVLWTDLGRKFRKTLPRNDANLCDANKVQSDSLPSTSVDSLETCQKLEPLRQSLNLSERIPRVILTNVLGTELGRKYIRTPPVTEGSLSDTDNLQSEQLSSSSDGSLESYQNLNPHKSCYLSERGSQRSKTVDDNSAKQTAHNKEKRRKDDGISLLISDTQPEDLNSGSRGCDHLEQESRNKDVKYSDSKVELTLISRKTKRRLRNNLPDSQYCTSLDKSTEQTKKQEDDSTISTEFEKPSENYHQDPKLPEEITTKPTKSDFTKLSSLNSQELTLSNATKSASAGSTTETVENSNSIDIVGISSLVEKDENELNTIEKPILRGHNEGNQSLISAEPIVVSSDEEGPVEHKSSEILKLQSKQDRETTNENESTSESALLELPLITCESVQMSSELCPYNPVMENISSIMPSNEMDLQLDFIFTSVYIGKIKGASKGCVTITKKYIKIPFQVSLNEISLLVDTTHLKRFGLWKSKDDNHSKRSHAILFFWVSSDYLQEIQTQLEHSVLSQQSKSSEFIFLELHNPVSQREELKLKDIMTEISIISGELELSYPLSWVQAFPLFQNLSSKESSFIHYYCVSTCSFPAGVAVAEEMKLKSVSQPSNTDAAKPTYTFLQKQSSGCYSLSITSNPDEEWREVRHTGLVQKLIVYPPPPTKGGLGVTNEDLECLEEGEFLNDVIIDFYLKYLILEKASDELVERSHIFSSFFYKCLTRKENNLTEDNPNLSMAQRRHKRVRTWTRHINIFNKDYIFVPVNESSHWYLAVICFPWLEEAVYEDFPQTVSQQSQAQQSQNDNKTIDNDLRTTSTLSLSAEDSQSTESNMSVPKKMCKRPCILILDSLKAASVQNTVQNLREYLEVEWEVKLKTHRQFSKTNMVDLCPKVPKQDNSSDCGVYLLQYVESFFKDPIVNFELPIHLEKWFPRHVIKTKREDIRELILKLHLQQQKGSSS

[13] = target: T7, Sentrin-specific protease 6 (Homo sapiens, UniProt Q9GZR1); assay type: functional;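 also: Luminescence-based dose-response confirmatory assay of SENP6 inhibition, following up an ultra-high-throughput screen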
T7 sequence (Q9GZR1 whole entry): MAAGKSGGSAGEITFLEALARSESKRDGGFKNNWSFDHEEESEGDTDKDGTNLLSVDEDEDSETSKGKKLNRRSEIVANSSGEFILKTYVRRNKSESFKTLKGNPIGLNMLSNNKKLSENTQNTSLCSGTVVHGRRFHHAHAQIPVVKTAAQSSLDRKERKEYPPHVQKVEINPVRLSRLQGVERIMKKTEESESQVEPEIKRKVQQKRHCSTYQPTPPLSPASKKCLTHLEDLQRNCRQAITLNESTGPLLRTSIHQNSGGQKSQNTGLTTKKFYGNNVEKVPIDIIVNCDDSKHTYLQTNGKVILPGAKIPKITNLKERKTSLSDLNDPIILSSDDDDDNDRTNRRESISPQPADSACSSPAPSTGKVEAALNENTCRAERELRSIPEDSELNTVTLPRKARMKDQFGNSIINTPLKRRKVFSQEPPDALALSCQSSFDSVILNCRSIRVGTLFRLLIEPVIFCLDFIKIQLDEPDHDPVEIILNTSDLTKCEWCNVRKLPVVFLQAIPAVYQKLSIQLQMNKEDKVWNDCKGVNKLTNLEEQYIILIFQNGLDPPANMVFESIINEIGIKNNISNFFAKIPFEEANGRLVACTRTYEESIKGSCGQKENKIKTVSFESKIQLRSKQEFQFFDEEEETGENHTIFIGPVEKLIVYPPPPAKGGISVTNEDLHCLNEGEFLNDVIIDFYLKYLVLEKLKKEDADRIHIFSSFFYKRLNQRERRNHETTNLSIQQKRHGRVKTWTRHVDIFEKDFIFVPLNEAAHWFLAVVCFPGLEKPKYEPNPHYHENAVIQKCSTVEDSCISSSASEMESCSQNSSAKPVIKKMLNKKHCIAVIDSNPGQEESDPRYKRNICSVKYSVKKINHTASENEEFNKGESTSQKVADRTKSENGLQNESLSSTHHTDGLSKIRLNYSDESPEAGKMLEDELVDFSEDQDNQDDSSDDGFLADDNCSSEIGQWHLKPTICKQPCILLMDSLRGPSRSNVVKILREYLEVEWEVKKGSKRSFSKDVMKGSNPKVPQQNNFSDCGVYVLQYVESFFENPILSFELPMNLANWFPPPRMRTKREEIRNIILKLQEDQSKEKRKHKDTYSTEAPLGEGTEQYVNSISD

Structure (SMILES)	IC50 [3]	IC50 [4]	IC50 (Caspase-3)	IC50 [11]	IC50 [12]	IC50 [13]	further results
Cc1ccccc1C(=O)NNC(=S)NC(=O)c1ccccc1	–	–	–	–	–	–	IC50 (Leucine aminopeptidase): 91.2 µM (active); IC50 [1]: 12.6 µM (active); EC50 [2]: 2.11 µM (active)
Brc1ccc2c(c1)C(OC1CN3CCC1CC3)c1ccccc1CS2 (stereo unspecified)	2.34 µM (active)	2.13 µM (active)	–	–	–	–	IC50 [1]: 16 µM (active); CC50 [5]: 13.1 µM (active)
CCc1ccc2c(c1)CCCN2C(=O)c1ccccc1C(=O)O	1.56 µM (active)	0.994 µM (active)	–	–	–	–	–
Cn1c(=O)c2c(nc(NCc3ccco3)n2C/C=C/c2ccccc2)n(C)c1=O	0.41 µM (active)	< 0.25 µM (active)	–	–	–	–	EC50 [6]: > 112 µM (not active); AC50 (HEK293): 4.38 µM (active); AC50 [7]: 1.13 µM (active); AC50 [8]: 4.24 µM (active); AC50 [9]: 1.08 µM (active); EC50 [10]: 30 µM (active)
Cc1cc(-c2csc(Nc3ccccn3)n2)ccc1F	–	–	26 µM (active)	19.2 µM (active)	3.53 µM (active)	12.5 µM (active)	–
O=C1/C(=C/c2ccc([N+](=O)[O-])cc2)CCc2ccccc21	–	–	5.9 µM (active)	1.13 µM (active)	0.696 µM (active)	0.789 µM (active)	EC50 [6]: 0.404 µM (active); EC50 [10]: 1.11 µM (active)
O=c1cc(-c2ccc(O)cc2)oc2ccc(O)cc12	–	–	16.8 µM (active)	11.6 µM (active)	9.8 µM (active)	87.7 µM (active)	–
